Measurements reported in patent US20260053932A1, “COMPOUNDS AND METHODS FOR THE TARGETED DEGRADATION OF ANDROGEN RECEPTOR AND ASSOCIATED METHODS OF USE” (Arvinas Operations, Inc., priority 2020, published 2026).

System: androgen receptor (AR) in LNCaP and/or VCaP cells
Test: Androgen Receptor ELISA assay (AR degradation)
Format: cell-based
Details: degradation of AR ELISA in LNCaP and/or VCaP cells; Table 2C; read-out: DC50 Code*
Method: Androgen Receptor ELISA Assay. […] The protocols used with VCaP cells are described below.
The cells were grown for a minimum of 3 days.
(2)(i) A 10× stock plate in media was made; (ii) 2.5 μL of the 1000× stock was transferred to a new 10× stock plate (use 12 channel pipet, start at A (DMSO control) work thru H. When 247.5 µL of media was added to this plate, it served as a 10× stock; (iii) made media+1 nM R1881 for making 10× stock plate; (iv) added 247.5 μL of media with 1 nM R1881 to each well of the 10× stock plate, mix.
Then 22 μL of 10× stock was added to cells and incubated for 5 hours. […] Media was aspirated, and 100 μL 1× cell lysis buffer/well was added. The cells were placed on a shaker located in a cold room for 10 minutes and shaken at speed 7. The lysate mixture was mix and 20 μL transferred to 100 μl of Diluent in ELISA plate (0.15 μg/ml-[…]). The lysate-diluent mixture was store at 4° C. overnight on a shaker located in a cold room at speed 5 (gentle swirl).
The lysate-diluent mixture was shaken for 30 minutes at 37° C. The mouse AR antibody, anti-mouse antibody, TMB, and STOP solution were allowed to come to room temperature. The 1×ELISA buffer included in kit was made and loaded in reservoir. Media from the plate was discarded, the ELISA plate was tapped hard on paper towel, and washed 4×200 μl ELISA wash buffer using a plate washer for the first three washes and an eight channel aspirator for the fourth wash to more thoroughly aspirate the solution.
Next, 100 μL/well of mouse AR detection Ab was added; the plate was covered and shaken at 37° C. for 1 hour; media was discarded from the plates, the plates tapped on a paper towel and washed four times with 200 μL ELISA wash buffer with a plate washer for the first three washes and an eight channel aspirator for the fourth wash; 100 μL/well of anti-mouse—HRP conjugated Ab (comes with the kit) was added; the plates was cover and shaken at 37° C. for 30 minutes; the TMB reagent was allowed to come to room temperature; the media from the plate was discarded, the plates tapped on paper towel, and washed four times with 200 μL ELISA wash buffer with a plate washer for the first three washes and an eight channel aspirator for the fourth wash; plates were tapped on paper towel; 100 μL TMB was added to each well and the plate shaken for 2 minutes—while watching color. STOP solution (100 μL) was added when light blue color developed.
Data was analyzed and plotted using GraphPad Prism software. Exemplary compounds of Tables 1A, 1B, and 1C were assayed and the data shown below in Tables 2A, 2B, and 2C. DC50 (nM) categories (degradation of AR ELISA in LNCaP and/or VCaP cells) of Tables 2A, 2B, and 2C are as follows: A<1 nM; 1≤B<10 nM; 10≤C<100 nM; D≥100 nM. Dmax (%) categories (degradation of AR ELISA in LNCaP and/or VCaP cells) of Table 2 are as follows: A≥70; 50≤B<70; C<50

Structure (SMILES) | DC50
COCCN(CC1CCN(c2ccc(C(=O)N[C@H]3C(C)(C)[C@H](Oc4cc(C)c(C#N)c(C)c4)C3(C)C)cc2)CC1)[C@H]1C[C@H](Oc2cc3c(cc2OC)C(=O)N(C2CCC(=O)NC2=O)C3=O)C1 (mixture of isomers) [compound 170, rac-N-((1r,3r)-3-(4-cyano-3,5-dimethylphenoxy)-2,2,4,4-tetramethylcyclobutyl)-4-(4-((((1r,3r)-3-((2-(2,6-dioxopiperidin-3-yl)-6-methoxy-1,3-dioxoisoindolin-5-yl)oxy)cyclobutyl)(2-methoxyethyl)amino)methyl)piperidin-1-yl)benzamide] | < 1 nM
CCN(C1CCN(c2ccc(C(=O)N[C@H]3C(C)(C)[C@H](Oc4cc(C)c(C#N)c(C)c4)C3(C)C)cc2)CC1)[C@H]1C[C@H](Oc2ccc3c(c2)C(=O)N(C2CCC(=O)NC2=O)C3=O)C1 (mixture of isomers) [compound 173, rac-N-((1r,3r)-3-(4-cyano-3,5-dimethylphenoxy)-2,2,4,4-tetramethylcyclobutyl)-4-(4-(((1r,3r)-3-((2-(2,6-dioxopiperidin-3-yl)-1,3-dioxoisoindolin-5-yl)oxy)cyclobutyl) (ethyl)amino)piperidin-1-yl)benzamide] | < 1 nM
COc1cc(O[C@H]2C(C)(C)[C@H](NC(=O)c3ccc(N4CC(CN(C(C)C)[C@H]5C[C@H](Oc6ccc7c(c6)C(=O)N(C6CCC(=O)NC6=O)C7=O)C5)C4)cc3)C2(C)C)ccc1C#N (mixture of isomers) [compound 176, rac-N-((1r,3r)-3-(4-cyano-3-methoxyphenoxy)-2,2,4,4-tetramethylcyclobutyl)-4-(3-((((1r,3r)-3-((2-(2,6-dioxopiperidin-3-yl)-1,3-dioxoisoindolin-5-yl)oxy)cyclobutyl) (isopropyl)amino)methyl)azetidin-1-yl)benzamide] | < 1 nM
COc1cc(O[C@H]2C(C)(C)[C@H](NC(=O)c3cnc(N4CCC(CN(C(C)C)[C@H]5C[C@H](Oc6cccc7c6CN(C6CCC(=O)NC6=O)C7=O)C5)CC4)cn3)C2(C)C)ccc1C#N (mixture of isomers) [compound 177, rac-N-((1r,3r)-3-(4-cyano-3-methoxyphenoxy)-2,2,4,4-tetramethylcyclobutyl)-5-(4-((((1r,3r)-3-((2-(2,6-dioxopiperidin-3-yl)-1-oxoisoindolin-4-yl)oxy)cyclobutyl) (isopropyl)amino)methyl)piperidin-1-yl)pyrazine-2-carboxamide] | < 1 nM
Cc1cc(O[C@H]2C(C)(C)[C@H](NC(=O)c3ccc(N4CCC(O[C@H]5C[C@H](Oc6ccc7c(c6)C(=O)N(C6CCC(=O)NC6=O)C7=O)C5)CC4)cc3)C2(C)C)cc(C)c1C#N (mixture of isomers) [compound 178, N-((1r,3r)-3-(4-cyano-3,5-dimethylphenoxy)-2,2,4,4-tetramethylcyclobutyl)-4-(4-((1r,3r)-3-((2-(2,6-dioxopiperidin-3-yl)-1,3-dioxoisoindolin-5-yl)oxy)cyclobutoxy)piperidin-1-yl)benzamide] | < 1 nM
[2H]C([2H])([2H])OCCN(CC1CCN(c2ccc(C(=O)N[C@H]3C(C)(C)[C@H](Oc4cc(C)c(C#N)c(C)c4)C3(C)C)cc2)CC1)[C@H]1C[C@H](Oc2cc(OC([2H])([2H])[2H])c3c(c2)C(=O)N(C2CCC(=O)NC2=O)C3=O)C1 (mixture of isomers) [compound 181, rac-N-((1r,3r)-3-(4-cyano-3,5-dimethylphenoxy)-2,2,4,4-tetramethylcyclobutyl)-4-(4-((((1r,3r)-3-((2-(2,6-dioxopiperidin-3-yl)-7-(methoxy-d3)-1,3-dioxoisoindolin-5-yl)oxy)cyclobutyl)(2-(methoxy-d3)ethyl)amino)methyl)piperidin-1-yl)benzamide] | < 1 nM
Cc1cc(O[C@H]2C(C)(C)[C@H](NC(=O)c3ccc(N4CCC5(CC4)CN(CCOc4ccc6c(c4)C(=O)N(C4CCC(=O)NC4=O)C6=O)CCO5)cc3)C2(C)C)cc(C)c1C#N (mixture of isomers) [compound 182, rac-N-((1r,3r)-3-(4-cyano-3,5-dimethylphenoxy)-2,2,4,4-tetramethylcyclobutyl)-4-(4-(2-((2-(2,6-dioxopiperidin-3-yl)-1,3-dioxoisoindolin-5-yl)oxy)ethyl)-1-oxa-4,9-diazaspiro[5.5]undecan-9-yl)benzamide] | < 1 nM
Cc1cc(O[C@H]2C(C)(C)[C@H](NC(=O)c3cnc(N4CCC(CN(C(C)C)[C@H]5C[C@H](Oc6cccc7c6CN(C6CCC(=O)NC6=O)C7=O)C5)CC4)cn3)C2(C)C)cc(C)c1C#N (mixture of isomers) [compound 185, rac-N-((1r,3r)-3-(4-cyano-3,5-dimethylphenoxy)-2,2,4,4-tetramethylcyclobutyl)-5-(4-((((1r,3r)-3-((2-(2,6-dioxopiperidin-3-yl)-1-oxoisoindolin-4-yl)oxy)cyclobutyl) (isopropyl)amino)methyl)piperidin-1-yl)pyrazine-2-carboxamide] | < 1 nM
Cc1cc(O[C@H]2C(C)(C)[C@H](NC(=O)c3ccc(N4CCC(CN(C)[C@H]5C[C@H](Oc6ccc7c(c6)C(=O)N(C6CCC(=O)NC6=O)C7=O)C5)CC4)cc3)C2(C)C)cc(C)c1C#N (mixture of isomers) [compound 186, rac-N-((1r,3r)-3-(4-cyano-3,5-dimethylphenoxy)-2,2,4,4-tetramethylcyclobutyl)-4-(4-((((1r,3r)-3-((2-(2,6-dioxopiperidin-3-yl)-1,3-dioxoisoindolin-5-yl)oxy)cyclobutyl) (methyl)amino)methyl)piperidin-1-yl)benzamide] | < 1 nM
Cc1cc(O[C@H]2C(C)(C)[C@H](NC(=O)c3ccc(N4CCC(CN(CCN5CCOCC5)[C@H]5C[C@H](Oc6ccc7c(c6)C(=O)N(C6CCC(=O)NC6=O)C7=O)C5)CC4)cc3)C2(C)C)cc(C)c1C#N (mixture of isomers) [compound 188, rac-N-((1r,3r)-3-(4-cyano-3,5-dimethylphenoxy)-2,2,4,4-tetramethylcyclobutyl)-4-(4-((((1r,3r)-3-((2-(2,6-dioxopiperidin-3-yl)-1,3-dioxoisoindolin-5-yl)oxy)cyclobutyl)(2-morpholinoethyl)amino)methyl)piperidin-1-yl)benzamide] | < 1 nM
COc1cc(O[C@H]2C[C@H](N(C)C3CCN(c4ccc(C(=O)N[C@H]5C(C)(C)[C@H](Oc6cc(C)c(C#N)c(C)c6)C5(C)C)cc4)CC3)C2)cc2c1C(=O)N(C1CCC(=O)NC1=O)C2=O (mixture of isomers) [compound 189, rac-N-((1r,3r)-3-(4-cyano-3,5-dimethylphenoxy)-2,2,4,4-tetramethylcyclobutyl)-4-(4-(((1r,3r)-3-((2-(2,6-dioxopiperidin-3-yl)-7-methoxy-1,3-dioxoisoindolin-5-yl)oxy)cyclobutyl) (methyl)amino)piperidin-1-yl)benzamide] | < 1 nM
COCCN(CC1CC2(C1)CN(c1ccc(C(=O)N[C@H]3C(C)(C)[C@H](Oc4ccc(C#N)c(OC)c4)C3(C)C)cc1)C2)[C@H]1C[C@H](Oc2ccc3c(c2)C(=O)N(C2CCC(=O)NC2=O)C3=O)C1 (mixture of isomers) [compound 190, rac-N-((1r,3r)-3-(4-cyano-3-methoxyphenoxy)-2,2,4,4-tetramethylcyclobutyl)-4-(6-((((1r,3r)-3-((2-(2,6-dioxopiperidin-3-yl)-1,3-dioxoisoindolin-5-yl)oxy)cyclobutyl)(2-methoxyethyl)amino)methyl)-2-azaspiro[3.3]heptan-2-yl)benzamide] | < 1 nM
COc1cc(O[C@H]2C[C@H](N(C)CC3CCN(c4ccc(C(=O)N[C@H]5C(C)(C)[C@H](Oc6cc(C)c(C#N)c(C)c6)C5(C)C)cc4)CC3)C2)cc2c1C(=O)N(C1CCC(=O)NC1=O)C2=O (mixture of isomers) [compound 191, rac-N-((1r,3r)-3-(4-cyano-3,5-dimethylphenoxy)-2,2,4,4-tetramethylcyclobutyl)-4-(4-((((1r,3r)-3-((2-(2,6-dioxopiperidin-3-yl)-7-methoxy-1,3-dioxoisoindolin-5-yl)oxy)cyclobutyl) (methyl)amino)methyl)piperidin-1-yl)benzamide] | < 1 nM
